Data: patent US11136304B2, “Salts of a heterocyclic compound and crystalline forms, processes for preparing, therapeutic uses, and pharmaceutical compositions thereof” (Sunovion Pharmaceuticals Inc., priority 2019, dated 2021)
Structures can show the parent of a compound that is named as a salt.

Experiment: Stability study (storage at 60° C. and 60° C. 75% RH, measured by HPLC)
Assay type: physicochemical
Design: Stability Study Results (HPLC): unit not given here
Conditions: for stability: stored at 60° C. and 60° C. 75% RH for 1 month, measured at 20 days and 1 month by HPLC
Method: Each sample was stored at 60° C. and 60° C. 75% RH for 1 month. Each sample was measured at 20 days and 1 month by HPLC. HPLC conditions are described below.
Column: Waters XSelect CSH C18, 4.6×150 mm, 3.5 μm
MPA: 50 mM HClO4 in water (pH=3)
MPB: MeOH/acetonitrile (9:1)

Compound | Stability Study Results (HPLC) (1 month at 60° C.) | Stability Study Results (HPLC) (1 month at 60° C. 75% RH) | Stability Study Results (HPLC) (20 day at 60° C.) | Stability Study Results (HPLC) (20 days at 60° C. 75% RH) | Stability Study Results (HPLC) (Initial) | stability | stability (phosphate)
O=C(O)CC(O)(CC(=O)O)C(=O)O [Citric acid] | 99.16 | 97.73 | 99.10 | 98.34 | 99.08 |  | 
O=P(O)(O)O [Compound H3PO4] | 99.23 | 99.24 | 99.20 | 99.20 | 99.20 |  | 
CNC[C@@H]1OCCc2cccc(F)c21.O=C(O)/C=C/C(=O)O [Fumarate, (R)-1-(8-fluoroisochroman-1-yl)-N-methylmethanamine fumarate] |  |  |  |  |  | stable | 
O=C(O)/C=C/C(=O)O [Fumaric acid] | 99.60 | 99.64 | 99.54 | 99.67 | 99.48 |  | 
Cl [HCl] | 98.89 | 99.05 | 98.50 | 99.07 | 98.94 |  | 
CNC[C@@H]1OCCc2cccc(F)c21.Cl [Hydrochloride, (R)-1-(8-fluoroisochroman-1-yl)-N-methylmethanamine hydrochloride] |  |  |  |  |  | stable | 
CNC[C@@H]1OCCc2cccc(F)c21.O=C(O)C(O)C(O)C(=O)O [L-tartrate, (R)-1-(8-fluoroisochroman-1-yl)-N-methylmethanamine L-tartrate] |  |  |  |  |  | stable | 
CNC[C@@H]1OCCc2cccc(F)c21 [Phosphate, (R)-1-(8-fluoroisochroman-1-yl)-N-methylmethanamine phosphate] |  |  |  |  |  |  | stable
CNC[C@@H]1OCCc2cccc(F)c21.O=C(O)CC(O)(CC(=O)O)C(=O)O [citrate, (R)-1-(8-fluoroisochroman-1-yl)-N-methylmethanamine citrate] |  |  |  |  |  | stable | 
CNC[C@@H]1OCCc2cccc(F)c21 [freebase (amorphous) of Compound 1, (R)-1-(8-fluoroisochroman-1-yl)-N-methylmethanamine] |  |  |  |  |  | unstable | 
L-Tartaric | 99.14 | 99.23 | 99.13 | 99.23 | 99.10 |  | 
